We go through 9 molecules from patent publication US20050250742A1 (Pfizer Inc., priority 2004, published 2005).

In experiment [1] the target is T1, PIN1-CD (catalytic peptidyl-prolyl isomerase domain, devoid of the PIN1 WW domain) (Homo sapiens, UniProt Q13526).
T1 construct: PIN1 peptide containing the catalytic peptidyl-prolyl isomerase domain but devoid of the PIN1 WW domain
The experiment can be described thus: Pin1 peptidyl-prolyl isomerase assay (protease-coupled, spectrophotometric). The class given is biochemical. The following applies: catalytic PPIase domain without WW domain; 15° C., pH 7.5, 100 μM Suc-AEPF-pNA. From the text:
PIN1 is a phosphorylation dependent peptidyl-prolyl isomerase. The PIN1 assay is a spectrophotometric assay based on the coupled chymotrypsin or subtilisin catalyzed, cis-trans conformation dependent cleavage of a para-nitroanaline containing peptide substrate. […] Cleavage of the isomerized peptide releases para-nitroanaline, which can be monitored by an increase in absorbance at 390 nm. The PIN1 peptide substrate, succinyl-[…]-proline-phenylalanine-paranitroaniline (Suc-AEPF-pNA) (Bachem), is kept in a predominantly cis conformation with an anhydrous TFE/LiCl solvent mixture.
Upon dilution into an aqueous assay mixture containing PIN1, the peptide substrate undergoes PIN1 catalyzed isomerization to the trans conformation. […] To minimize the spontaneous isomerization of the peptide substrate, reactions are performed at 15° C. A typical reaction contains 25 mM MOPS pH 7.5, 0.5 mM TCEP, 2% DMSO, 5 μl of a 25 mg/ml solution of subtilisin Carlsberg, 50 nM PIN1-PPiase, and 100 μM Suc-AEPF-pNA peptide substrate. Reactions are cooled to 15° C. and initiated with the addition of Suc-AEPF-pNA. The absorbance at 390 nm is monitored continuously until all substrate has been converted to the cleaved product. […] The rate constant k is linearly proportional to the concentration of active enzyme present in the assay mixture once the rate constant for the spontaneous isomerization is subtracted. […] Therefore, during inhibition experiments, the IC50, for non-tight binding inhibitors, is essentially the inhibition constant Ki.
(§1) In Table 1, the Ki data reported under the PIN1—CD heading corresponds to testing with PIN1 peptide containing the catalytic peptidyl-prolyl isomerase domain but devoid of the PIN1 WW domain. Similarly, the dissociation constant (Kd) data under PIN1-CD refers to testing with a peptide containing the catalytic PIN1 domain but devoid of the PIN1 WW domain.

Experiment [2] addresses T2, PIN1-CD (catalytic PIN1 domain, devoid of the PIN1 WW domain) (Homo sapiens, UniProt Q13526).
T2 construct: PIN1 peptide containing the catalytic peptidyl-prolyl isomerase domain but devoid of the PIN1 WW domain
The experiment is described as follows: Dissociation constant (Kd) with PIN1 catalytic domain. It counts as binding. Particulars: peptide containing the catalytic PIN1 domain.
From the text: as §1

T2 sequence (Q13526 52-163 limits assumed): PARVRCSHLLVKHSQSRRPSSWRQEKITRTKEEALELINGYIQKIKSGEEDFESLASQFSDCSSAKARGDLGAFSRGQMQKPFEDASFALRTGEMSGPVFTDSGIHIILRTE
T1 sequence (Q13526 52-163 limits assumed): as above

For the molecule `O=C(N[C@@H](COP(=O)(O)O)Cc1cccc(F)c1)c1ccc2ccccc2c1Br` [Example 25-31, Phosphoric acid mono-[(R)-2-{[1-(1-bromo-naphthalen-2-yl)-methanoyl]-amino}-3-(3-fluoro-phenyl)-propyl]ester], the Ki in experiment [1] was less than 1000 nM. In experiment [2], this molecule showed a Kd of less than 1000 nM.
With `COc1ccc2cc(C(=O)N[C@@H](COP(=O)(O)O)Cc3cccc(F)c3)ccc2c1` [Example 25-32, Phosphoric acid mono-((R)-3-(3-fluoro-phenyl)-2-{[1-(6-methoxy-naphthalen-2-yl)-methanoyl]-amino}-propyl)ester], in experiment [1], the Ki was less than 1000 nM. The Kd in experiment [2] was less than 1000 nM.
As to `Cc1cccc(C[C@H](COP(=O)(O)O)NC(=O)c2ccc3ccccc3c2Br)c1` [Example 25-34, Phosphoric acid mono-((R)-2-{[1-(1-bromo-naphthalen-2-yl)-methanoyl]-amino}-3-m-tolyl-propyl)ester], the Ki in experiment [1] was less than 1000 nM. This molecule returned a Kd in experiment [2] of less than 1000 nM.
As to `COc1ccc2cc(C(=O)N[C@@H](COP(=O)(O)O)Cc3cccc(C)c3)ccc2c1` [Example 25-35, Phosphoric acid mono-((R)-2-{[1-(6-methoxy-naphthalen-2-yl)-methanoyl]-amino}-3-m-tolyl-propyl)ester], the Ki in experiment [1] is less than 1000 nM. For the same molecule, the Kd in experiment [2] is less than 1000 nM.
With `CC(C)(C)OC(=O)N[C@@H](COP(=O)(O)O)Cc1cccnc1` [Example 30, (1-Phosphonooxymethyl-2-pyridin-3-yl-ethyl)-carbamic acid tert-butyl ester], in experiment [1], the Ki was less than 100000 nM. The molecule also had a Kd in experiment [2] of less than 10000 nM.
Taken in the same sequence, the figures for `O=C(N[C@H](CCc1ccccc1)COP(=O)(O)O)c1ccc2ccccc2c1` [Example 37, Phosphoric acid mono-{2-[(1-naphthalen-2-yl-methanoyl)-amino]-4-phenyl-butyl}ester] were less than 10000 nM and less than 2000 nM.
The corresponding values for `O=C(O[C@@H](COP(=O)(O)O)Cc1ccccc1)c1ccc2ccccc2c1` [Example 49, Naphthalene-2-carboxylic acid (R)-2-phenyl-1-phosphonooxymethyl-ethyl ester] are less than 1000 nM and less than 1000 nM.
As for `O=C(O[C@@H](COP(=O)(O)O)Cc1cccc(F)c1)c1cc2ccccc2s1` [Example 54], the Ki in experiment [1] was less than 1000 nM. The Kd in experiment [2] was less than 1000 nM.
Take `O=C(O[C@@H](COP(=O)(O)O)Cc1cccc(F)c1)c1ccc2ccccc2c1` [Example 74, Naphthalene-2-carboxylic acid (R)-1-(3-fluoro-benzyl)-2-phosphonooxy-ethyl ester]: the Ki in experiment [1] was less than 1000 nM. The molecule further yielded a Kd in experiment [2] of less than 1000 nM.
